In experiment [1] the target is Intestinal-type alkaline phosphatase (Mus musculus, UniProt P24822). Description: mouse intestinal alkaline phosphatase activators, dose response, biochemical, luminescence, uHTS hits (AID 488783). Type of experiment: functional.
Experiment [2] has as its target T1, Alkaline phosphatase, tissue-nonspecific isozyme (Homo sapiens, UniProt P05186).
T1 sequence (P05186 whole entry): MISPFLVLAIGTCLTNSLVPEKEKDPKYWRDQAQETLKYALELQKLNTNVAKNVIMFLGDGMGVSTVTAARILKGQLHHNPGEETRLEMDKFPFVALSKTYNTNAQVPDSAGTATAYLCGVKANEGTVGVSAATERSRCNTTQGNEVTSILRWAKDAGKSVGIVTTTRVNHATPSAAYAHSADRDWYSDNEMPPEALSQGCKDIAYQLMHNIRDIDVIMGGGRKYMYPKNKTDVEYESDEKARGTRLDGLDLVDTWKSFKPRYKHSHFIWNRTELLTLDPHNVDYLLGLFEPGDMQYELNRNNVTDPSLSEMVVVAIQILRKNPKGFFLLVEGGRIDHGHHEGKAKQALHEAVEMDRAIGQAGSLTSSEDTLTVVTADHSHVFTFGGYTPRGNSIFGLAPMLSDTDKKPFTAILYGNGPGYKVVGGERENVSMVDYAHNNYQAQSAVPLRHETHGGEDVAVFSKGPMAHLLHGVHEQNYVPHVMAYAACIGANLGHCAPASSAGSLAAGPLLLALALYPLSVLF
In words: TNAP enzyme activators, dose response, selectivity assay for mouse IAP activator project, biochemical, TNAP isozyme, mouse IAP uHTS hits (AID 488880). Type of experiment: functional.

In experiment [3] the target is Intestinal-type alkaline phosphatase (Homo sapiens, UniProt P09923). In words: activation of human intestinal alkaline phosphatase – biochemical, dose response (AID 488873). The format is functional.
Chain of Intestinal-type alkaline phosphatase (Homo sapiens, UniProt P09923) (P09923 whole entry): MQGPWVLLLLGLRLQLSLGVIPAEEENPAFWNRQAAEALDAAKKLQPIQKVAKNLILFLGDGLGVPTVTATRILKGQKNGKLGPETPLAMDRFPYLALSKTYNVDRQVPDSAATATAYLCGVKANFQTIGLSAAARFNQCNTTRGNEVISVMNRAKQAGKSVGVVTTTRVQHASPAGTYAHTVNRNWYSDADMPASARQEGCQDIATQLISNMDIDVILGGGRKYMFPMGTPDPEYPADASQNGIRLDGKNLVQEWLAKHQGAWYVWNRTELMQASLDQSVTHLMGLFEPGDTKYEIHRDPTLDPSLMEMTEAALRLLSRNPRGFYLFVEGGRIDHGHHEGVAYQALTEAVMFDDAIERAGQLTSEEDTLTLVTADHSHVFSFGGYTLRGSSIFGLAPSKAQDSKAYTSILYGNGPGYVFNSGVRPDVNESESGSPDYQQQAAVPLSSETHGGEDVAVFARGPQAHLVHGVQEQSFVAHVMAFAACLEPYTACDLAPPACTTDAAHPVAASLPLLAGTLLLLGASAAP
Experiment [4] deals with BJ. In words: cytotoxicity toward BJ-TERT-LT-ST fibroblasts, dose response, cell-based, RAS-independent, luminescence (AID 1935).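 Note: BJ fibroblasts immortalized with TERT plus LT and ST oncogenes.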 The format is functional. The settings on record: Homo sapiens.
In experiment [5] the test system is BJ. In words: cytotoxicity toward BJ-TERT fibroblasts, dose response, cell-based, RAS-independent, luminescence (AID 1933). Type of experiment: functional. As to conditions: Homo sapiens.
A short description of experiment [6]: cytotoxicity toward DRD oncogenic fibroblasts, dose response, cell-based, non-viral oncogenic, luminescence (AID 1934). As to conditions: Homo sapiens. The format is functional.
The target in experiment [7] is T2, Cannabinoid receptor 2 (Homo sapiens, UniProt P34972). In words: SAR analysis of agonists of the Cannabinoid Receptor 2 using an Image-Based Assay - Set 2. [Related pubchem assays (depositor defined):AID1961, AID1965]. Type of experiment: functional.
T2 sequence (P34972 whole entry): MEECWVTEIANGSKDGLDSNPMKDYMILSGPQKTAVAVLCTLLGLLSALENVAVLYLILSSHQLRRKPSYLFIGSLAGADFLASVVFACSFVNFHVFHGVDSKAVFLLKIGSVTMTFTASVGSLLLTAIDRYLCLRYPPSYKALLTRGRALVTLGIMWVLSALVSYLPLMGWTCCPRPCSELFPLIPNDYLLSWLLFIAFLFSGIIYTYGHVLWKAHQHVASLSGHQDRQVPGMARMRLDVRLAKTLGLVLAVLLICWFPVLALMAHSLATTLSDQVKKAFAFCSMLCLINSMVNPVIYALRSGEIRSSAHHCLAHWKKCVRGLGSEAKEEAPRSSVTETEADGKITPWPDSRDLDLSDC
The next experiment deals with Cannabinoid receptor 1 (Homo sapiens, UniProt P21554). In words: SAR analysis of antagonists of the Cannabinoid Receptor 1 using an Image-Based Assay. [Related pubchem assays (depositor defined):AID1961, AID1965]. The format is functional.
Chain of Cannabinoid receptor 1 (P21554 whole entry): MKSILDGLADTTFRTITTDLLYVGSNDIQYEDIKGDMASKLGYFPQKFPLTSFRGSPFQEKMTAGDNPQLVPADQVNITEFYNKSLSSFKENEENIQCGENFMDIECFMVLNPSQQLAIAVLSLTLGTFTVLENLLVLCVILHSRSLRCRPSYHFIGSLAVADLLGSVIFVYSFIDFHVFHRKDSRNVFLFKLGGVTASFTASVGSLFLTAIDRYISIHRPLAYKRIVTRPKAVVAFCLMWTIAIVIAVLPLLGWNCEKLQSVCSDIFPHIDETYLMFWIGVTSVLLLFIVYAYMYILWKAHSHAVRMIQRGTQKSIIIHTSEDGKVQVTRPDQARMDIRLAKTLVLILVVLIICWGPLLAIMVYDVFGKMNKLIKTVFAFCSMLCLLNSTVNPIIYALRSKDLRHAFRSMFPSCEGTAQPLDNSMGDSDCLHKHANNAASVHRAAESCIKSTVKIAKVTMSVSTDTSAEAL
The target of experiment [8] is T3, G-protein coupled receptor 55 (Homo sapiens, UniProt Q9Y2T6). In words: GPR55 agonists via beta-arrestin recruitment, primary screen, imaging, U2OS cells, beta-arrestin-GFP redistribution (AID 1961). The format is functional.
T3 sequence (Q9Y2T6 whole entry): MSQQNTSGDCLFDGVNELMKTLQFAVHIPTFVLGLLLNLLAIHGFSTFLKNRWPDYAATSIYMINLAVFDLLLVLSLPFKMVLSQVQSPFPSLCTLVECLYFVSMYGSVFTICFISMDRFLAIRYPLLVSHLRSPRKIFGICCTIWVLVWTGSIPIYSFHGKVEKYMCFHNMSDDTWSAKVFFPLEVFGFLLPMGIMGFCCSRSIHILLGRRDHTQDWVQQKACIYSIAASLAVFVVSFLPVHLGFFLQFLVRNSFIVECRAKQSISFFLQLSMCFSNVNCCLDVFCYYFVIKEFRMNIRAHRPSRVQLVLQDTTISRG
Experiment [9] in a line: Luminescence Cell-Based Dose Retest to Confirm Inhibitors of Cancer Stem Cells. [Related pubchem assays (depositor defined):AID2717, AID2721]. The format is functional. As to conditions: Homo sapiens.
In experiment [10] the target is T2, Cannabinoid receptor 2. Description: SAR analysis of antagonists of the Cannabinoid Receptor 2 using an Image-Based Assay - Set 2. [Related pubchem assays (depositor defined):AID1961, AID1965]. The format is functional.
Experiment [11] concerns the target T3, G-protein coupled receptor 55. In words: SAR analysis of selective Agonists of GPR55 using an Image-Based Assay. [Related pubchem assays (depositor defined):AID1961, AID1965]. Type of experiment: functional.
The test system of experiment [12] is BJ. In words: cells. Type of experiment: functional, cell-based. The settings on record: Homo sapiens.
Experiment [13] addresses Sphingosine 1-phosphate receptor 2 (Homo sapiens, UniProt O95136). Description: Late stage counterscreen assay for S1P4 antagonists: Fluorescence dose response cell-based screening assay for antagonists of the Sphingosine 1-Phosphate Receptor 2 (S1P2). [Related pubchem assays (depositor defined):AID1510, AID1524, AID1692, AID1853, AID2332, AID489009, AID489017]. The format is functional.

Experiment [14] addresses T4, Sphingosine 1-phosphate receptor 4 (Homo sapiens, UniProt O95977).
T4 sequence (O95977 whole entry): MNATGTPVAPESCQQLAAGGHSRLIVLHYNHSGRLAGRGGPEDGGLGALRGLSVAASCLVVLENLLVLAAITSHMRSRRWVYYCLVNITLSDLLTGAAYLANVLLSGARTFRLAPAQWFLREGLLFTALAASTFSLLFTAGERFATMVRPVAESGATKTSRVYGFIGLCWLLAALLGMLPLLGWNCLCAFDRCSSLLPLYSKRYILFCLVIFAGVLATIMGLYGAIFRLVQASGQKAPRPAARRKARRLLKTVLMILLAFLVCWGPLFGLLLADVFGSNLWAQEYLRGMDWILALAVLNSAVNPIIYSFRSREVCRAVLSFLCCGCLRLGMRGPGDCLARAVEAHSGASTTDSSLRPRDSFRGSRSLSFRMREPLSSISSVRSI
In words: S1P4 receptor antagonists, human, late-stage follow-up, cell-based, fluorescence, synthesized analogues (AID 2346). Type of experiment: functional.

Experiment [15] deals with Sphingosine 1-phosphate receptor 3 (Homo sapiens, UniProt Q99500). In words: Late stage counterscreen assay for S1P4 antagonists: Fluorescence dose response cell-based screening assay for antagonists of the Sphingosine 1-Phosphate Receptor 3 (S1P3). [Related pubchem assays (depositor defined):AID1510, AID1524, AID1692, AID1853, AID2332, AID489009, AID489017]. Type of experiment: functional.
Chain of Sphingosine 1-phosphate receptor 3 (Q99500 whole entry): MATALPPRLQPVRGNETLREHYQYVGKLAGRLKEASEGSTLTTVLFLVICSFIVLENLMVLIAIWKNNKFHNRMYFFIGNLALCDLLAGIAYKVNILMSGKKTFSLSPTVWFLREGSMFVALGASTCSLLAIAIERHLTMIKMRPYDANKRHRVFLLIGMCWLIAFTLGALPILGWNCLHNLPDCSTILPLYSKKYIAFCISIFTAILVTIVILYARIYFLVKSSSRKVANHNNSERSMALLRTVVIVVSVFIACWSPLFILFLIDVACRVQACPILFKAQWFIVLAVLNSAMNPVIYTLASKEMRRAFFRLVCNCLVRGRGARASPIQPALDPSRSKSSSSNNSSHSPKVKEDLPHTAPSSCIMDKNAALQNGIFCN

Experiment [16] deals with Sphingosine 1-phosphate receptor 5 (Homo sapiens, UniProt Q9H228). In words: Late stage counterscreen assay for S1P4 antagonists: Fluorescence dose response cell-based screening assay for antagonists of the Sphingosine 1-Phosphate Receptor 5 (S1P5). [Related pubchem assays (depositor defined):AID1510, AID1524, AID1692, AID1853, AID2332, AID489009, AID489017]. The format is functional.
Chain of Sphingosine 1-phosphate receptor 5 (Q9H228 whole entry): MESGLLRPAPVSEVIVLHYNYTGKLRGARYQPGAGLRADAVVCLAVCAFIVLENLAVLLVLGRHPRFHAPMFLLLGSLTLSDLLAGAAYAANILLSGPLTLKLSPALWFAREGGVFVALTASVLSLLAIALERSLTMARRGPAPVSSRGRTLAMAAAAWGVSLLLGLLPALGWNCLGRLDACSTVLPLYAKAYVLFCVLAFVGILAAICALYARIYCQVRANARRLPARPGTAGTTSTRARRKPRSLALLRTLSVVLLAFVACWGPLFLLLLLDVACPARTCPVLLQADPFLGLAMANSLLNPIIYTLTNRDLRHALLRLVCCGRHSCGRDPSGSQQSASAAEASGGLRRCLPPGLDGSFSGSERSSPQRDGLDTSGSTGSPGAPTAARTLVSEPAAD

The target of experiment [17] is Sphingosine 1-phosphate receptor 1 (Homo sapiens, UniProt P21453). In words: Late stage counterscreen assay for S1P4 antagonists: Fluorescence dose response cell-based screening assay for antagonists of the Sphingosine 1-Phosphate Receptor 1 (S1P1). [Related pubchem assays (depositor defined):AID1510, AID1524, AID1692, AID1853, AID2332, AID489009, AID489017]. The format is functional.
Chain of Sphingosine 1-phosphate receptor 1 (P21453 whole entry): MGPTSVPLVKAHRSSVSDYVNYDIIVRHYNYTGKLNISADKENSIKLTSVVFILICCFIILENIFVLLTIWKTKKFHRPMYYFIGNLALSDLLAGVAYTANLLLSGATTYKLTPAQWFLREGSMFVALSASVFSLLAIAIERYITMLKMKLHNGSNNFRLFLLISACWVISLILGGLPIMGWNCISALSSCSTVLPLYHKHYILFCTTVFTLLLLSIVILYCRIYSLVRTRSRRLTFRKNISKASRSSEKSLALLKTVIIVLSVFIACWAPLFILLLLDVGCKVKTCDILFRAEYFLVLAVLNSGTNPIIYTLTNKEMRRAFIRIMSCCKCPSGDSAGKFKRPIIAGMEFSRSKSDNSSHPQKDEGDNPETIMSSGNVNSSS

A short description of experiment [18]: inhibitors of intracellular T. cruzi replication, confirmation, NIH3T3 host cells, beta-gal luminescence (AID 2044).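 Note: intracellular parasites grown in NIH/3T3 mouse fibroblasts as host cells; luminescent beta-galactosidase reporter signal from transgenic T. cruzi replicating inside host cells; inhibitors lower the luminescence signal.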 Type of experiment: functional, cell-based.
Experiment [19] has as its target T5, Tyrosine-protein phosphatase non-receptor type 22 (Homo sapiens, UniProt Q9Y2R2).
T5 sequence (Q9Y2R2 whole entry): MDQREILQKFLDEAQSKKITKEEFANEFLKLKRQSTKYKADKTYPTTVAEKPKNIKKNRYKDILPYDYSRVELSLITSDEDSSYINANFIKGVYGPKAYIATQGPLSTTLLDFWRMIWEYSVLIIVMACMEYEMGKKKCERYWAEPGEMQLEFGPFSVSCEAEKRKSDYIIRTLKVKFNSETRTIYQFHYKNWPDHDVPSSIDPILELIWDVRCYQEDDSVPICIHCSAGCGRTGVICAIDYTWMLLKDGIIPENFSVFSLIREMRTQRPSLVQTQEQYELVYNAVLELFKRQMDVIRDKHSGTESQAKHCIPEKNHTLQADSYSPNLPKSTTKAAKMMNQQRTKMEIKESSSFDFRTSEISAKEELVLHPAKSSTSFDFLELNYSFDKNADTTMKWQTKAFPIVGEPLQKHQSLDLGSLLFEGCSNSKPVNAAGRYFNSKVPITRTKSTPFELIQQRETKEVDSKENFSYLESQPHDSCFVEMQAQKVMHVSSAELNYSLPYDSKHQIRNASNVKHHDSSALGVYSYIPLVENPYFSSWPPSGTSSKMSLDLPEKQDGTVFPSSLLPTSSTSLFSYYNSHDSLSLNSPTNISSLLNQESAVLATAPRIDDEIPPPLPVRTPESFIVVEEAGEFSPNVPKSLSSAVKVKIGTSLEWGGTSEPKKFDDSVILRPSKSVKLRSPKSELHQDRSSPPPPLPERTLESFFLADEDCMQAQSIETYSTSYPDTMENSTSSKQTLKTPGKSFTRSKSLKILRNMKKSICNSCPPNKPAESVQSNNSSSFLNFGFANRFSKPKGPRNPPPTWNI
The format is functional.

Experiment [20] is described as follows: cytotoxicity toward NIH3T3 fibroblasts, dose response, counter-screen, cell-based, ATP luminescence, mouse fibroblasts (AID 2010).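 Note: cells exposed to compound for about 90 hours before reading.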 Type of experiment: functional.
Experiment [21] concerns the target T5, Tyrosine-protein phosphatase non-receptor type 22. The format is functional. The source holds these as a separate data set.
Experiment [22] has as its target T6, Tyrosine-protein phosphatase non-receptor type 7 (Homo sapiens, UniProt P35236).
T6 sequence (P35236 whole entry): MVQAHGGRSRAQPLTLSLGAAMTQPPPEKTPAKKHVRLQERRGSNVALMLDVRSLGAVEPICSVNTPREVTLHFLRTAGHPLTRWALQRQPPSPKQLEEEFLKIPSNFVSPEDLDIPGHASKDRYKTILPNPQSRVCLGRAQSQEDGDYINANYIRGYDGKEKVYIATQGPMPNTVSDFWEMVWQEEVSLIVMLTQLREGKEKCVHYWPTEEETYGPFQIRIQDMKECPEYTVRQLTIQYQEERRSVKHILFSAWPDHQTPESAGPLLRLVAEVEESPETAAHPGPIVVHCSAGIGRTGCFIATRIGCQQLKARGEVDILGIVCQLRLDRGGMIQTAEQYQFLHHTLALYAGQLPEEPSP
The format is functional.

Calls of active or inactive are those of the source. Bounds are passed on as bounds.
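Throughout, for AC50: cells exposed to compound for roughly 70 hours or longer before luminescence read.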

Chain of Sphingosine 1-phosphate receptor 2 (O95136 whole entry): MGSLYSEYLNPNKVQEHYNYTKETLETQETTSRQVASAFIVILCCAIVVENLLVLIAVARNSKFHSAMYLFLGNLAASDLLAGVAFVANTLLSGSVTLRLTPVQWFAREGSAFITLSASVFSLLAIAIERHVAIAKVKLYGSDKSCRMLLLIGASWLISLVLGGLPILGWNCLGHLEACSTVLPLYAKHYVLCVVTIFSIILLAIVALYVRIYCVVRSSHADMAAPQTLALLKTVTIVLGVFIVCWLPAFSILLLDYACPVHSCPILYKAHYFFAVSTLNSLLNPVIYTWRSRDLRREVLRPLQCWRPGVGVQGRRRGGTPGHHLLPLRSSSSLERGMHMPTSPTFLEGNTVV
Chain of Intestinal-type alkaline phosphatase (Mus musculus, UniProt P24822) (P24822 whole entry): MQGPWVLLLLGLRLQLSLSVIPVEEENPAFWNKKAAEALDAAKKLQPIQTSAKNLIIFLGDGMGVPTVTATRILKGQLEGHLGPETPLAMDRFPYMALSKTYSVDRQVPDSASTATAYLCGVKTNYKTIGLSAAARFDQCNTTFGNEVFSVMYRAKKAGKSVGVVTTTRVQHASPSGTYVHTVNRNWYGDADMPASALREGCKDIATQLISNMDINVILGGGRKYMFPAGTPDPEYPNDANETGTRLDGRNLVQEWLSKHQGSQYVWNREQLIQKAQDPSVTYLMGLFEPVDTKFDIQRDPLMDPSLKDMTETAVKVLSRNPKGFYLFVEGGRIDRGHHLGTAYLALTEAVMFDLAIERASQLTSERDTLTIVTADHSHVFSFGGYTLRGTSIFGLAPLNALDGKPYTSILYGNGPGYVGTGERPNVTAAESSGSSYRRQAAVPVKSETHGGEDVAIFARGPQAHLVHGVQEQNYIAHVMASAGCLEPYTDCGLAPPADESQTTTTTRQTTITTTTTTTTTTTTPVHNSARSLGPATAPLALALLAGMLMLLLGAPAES

On to `COc1ccc(NC(=O)CCNS(=O)(=O)c2ccc3[nH]c(=O)oc3c2)cc1Cl`, for which the EC50 in experiment [1] was 20.5 µM (active); in experiment [2], 39.6 µM (active); in experiment [3], 42.8 µM (active).

On to `Cc1occc1C(=O)Nc1ccc(OCc2ccccc2)cc1`, for which the EC50 was > 150 µM (inconclusive) in the experiment on BJ [4]; 11.4 µM (active) in the experiment with BJ [5]; 9.29 µM (active) in experiment [6]; > 32 µM (inactive) at Cannabinoid receptor 2 [7]; 866 nM (active) in [8]; 544 nM (active) in experiment [11]. Further, the EC50 in the experiment on BJ [12] was 9.33 µM (active). Besides, the IC50 on Cannabinoid receptor 1 and at Cannabinoid receptor 2 [10] was > 32 µM (inactive) in each case. Also, in experiment [9], the AC50 is 5.34 µM (active).

As to `CCOc1ccc(OC)cc1-c1ccc(C(=O)Nc2c(C)cccc2CC)o1`, the IC50 in [13] is > 25 µM (inactive); in [14] it was 414 nM (active); in experiment [15] it was > 25 µM (inactive); in experiment [16], 19.2 µM (inactive); in experiment [17] it was > 25 µM (inactive).

In the case of `CCC(C)NCCOCCOc1ccc(Cl)c(C)c1C` (stereo not drawn), the EC50 in experiment [18] is 148 nM (active); in experiment [20], 9.69 µM (active). The IC50 in experiment [19], in experiment [21] and in [22] was > 79.4 µM (inactive) each time.

Source of the values: ChEMBL document CHEMBL1201862, “PubChem BioAssay data set” (2004).
